Laboratory results taken from US20230338647A1, “SUBCUTANEOUSLY IMPLANTED DEVICE FOR GASTROINTESTINAL ADMINISTRATION OF SUBSTANCES” (Endopump Ltd., priority 2018, published 2023).

How the values were obtained:
[1] = Dissolution of L-DOPA/carbidopa/ascorbic acid mixture in 0.2 N HCl; assay type: physicochemical; conditions: 200 mg L-DOPA, 50 mg carbidopa, 2.5 mg ascorbic acid in 3.5 ml of 0.2 N HCl, vortexed and sonicated
Procedure: 3.5 ml of 0.2 N HCl were added to 200 mg of L- DOPA, 50 mg of carbidopa and 2.5 mg of ascorbic acid and the mixture was vortexed and then sonicated. […] Then 1N HCl was added dropwise till all L-DOPA was dissolved.

[2] = Solubility of levodopa esters and carbidopa propyl ester in water acidified with acetic acid; assay type: physicochemical
Procedure: Without limitation, in one example, substance 14 may include several levodopa esters, including the ethyl ester, propyl ester, isopropyl ester and butyl ester. In experiments, these esters were successfully dissolved in water to which was added acetic acid until attaining pH 5 (in some cases pH 4.5). […] The propyl ester of carbidopa was solubilized under the same conditions and a clear solution of 100 mg/ml of the carbidopa propyl ester was obtained. A mixture of each of the above levodopa esters with carbidopa propyl ester was prepared at a ratio of 4:1 (levodopa ester/carbidopa ester) and a clear solution was obtained. The solution of the mixture was stable for at least two weeks based on chromatographic determination of levodopa esters and carbidopa ester. The formulations of the levodopa esters together with carbidopa ester were prepared in diluted acetic acid and ascorbic acid at a pH 5. Each one of the above mentioned esters have good stability.

With `N[C@@H](Cc1ccc(O)c(O)c1)C(=O)O` [L- DOPA, L-3,4-dihydroxyphenylalanine] the “dissolution of L-DOPA (in words)” value [1] was “did not fully dissolve”.
For `CCCOC(=O)C(C)(Cc1ccc(O)c(O)c1)NN` (centres unmarked) [carbidopa propyl ester], the “soluble at a concentration of / clear solution obtained” value ([2]; water with acetic acid added until pH 5 (in some cases pH 4.5)) was ≥ 100 mg/mL.
For `CCOC(=O)[C@@H](N)Cc1ccc(O)c(O)c1` [ethyl ester], the “relative solubility among the levodopa esters (in words)” value [2] was “highest solubility”.
For `CC(C)OC(=O)[C@@H](N)Cc1ccc(O)c(O)c1` [isopropyl ester], the solubility ([2]; pH 5, aqueous buffer, thermodynamic from solid) was ≥ 400 mg/mL.
In the case of `CCCOC(=O)[C@@H](N)Cc1ccc(O)c(O)c1` [propyl ester], the “soluble at a concentration of / clear solution obtained” value ([2]; pH 5) is reported as ≥ 400 mg/mL.
